Results on 12 compounds are retold here after PubChem BioAssay (NCI).

Some test systems named below: SF-268 CNS; RXF 393 renal; NCI-H226 lung; UACC-62 melanoma; HCT-15 colon; U251 CNS; MOLT-4 leukemia; OVCAR-5 ovarian; RPMI-8226 leukemia; NCI-H460 lung.
Holding throughout (assay): DTP human tumour cell line panel, 48 h

The structures appear in SMILES notation.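 Cells were grown in 96-well plates and exposed to each compound for 48 hours at five concentrations; endpoints were interpolated linearly between bracketing concentrations, or set to the highest concentration if not reached. GI50 marks 50% less growth. Definition used: TGI = concentration required for complete inhibition of growth.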

Turning to `CCCCCCCCCCCCOC1C(CNC(=O)C2OC3OC(C)(C)OC3C2NC(=O)CN2CCN(c3ccc(OC)cc3)CC2)OC2OC(C)(C)OC21` (configuration not stated), the GI50 in the assay with SF-268 CNS was 3.12 µM; in the assay on RXF 393 renal, 2.1 µM; in the assay with NCI-H226 lung, 5.56 µM; with UACC-62 melanoma it was 5.44 µM; in the assay on HCT-15 colon, 3.53 µM; with U251 CNS, 4.74 µM. In addition, the GI50 with MOLT-4 leukemia was 3.12 µM; with OVCAR-5 ovarian it was 2.52 µM; with RPMI-8226 leukemia, 2.13 µM. In addition, the concentration for total growth inhibition (TGI) came to 11.5 µM in the assay with SF-268 CNS; 4.44 µM with RXF 393 renal; 19.2 µM with NCI-H226 lung; 18.3 µM with UACC-62 melanoma; 11.3 µM with HCT-15 colon; 15.8 µM in the assay on U251 CNS. Also, the TGI in the assay on MOLT-4 leukemia was determined as 10.8 µM; with OVCAR-5 ovarian it was 7.5 µM; with RPMI-8226 leukemia, 4.73 µM.

For the compound `CCOc1ccccc1N=Nc1c(-c2ccccc2)nn(C(=O)CC(=O)Nc2cccc(C)c2)c1-c1ccccc1`, the total growth inhibition concentration (TGI) in the assay on SF-268 CNS, with RXF 393 renal, in the assay on NCI-H460 lung, in the assay on NCI-H226 lung, in the assay with UACC-62 melanoma and in the assay on U251 CNS was > 100 µM throughout. In addition, the TGI in the assay on MOLT-4 leukemia, in the assay on OVCAR-5 ovarian and in the assay on RPMI-8226 leukemia was > 100 µM each time.

Regarding `O=C(Nc1ccc(Cl)cc1Cl)OC(Cn1cncn1)c1ccc(Cl)cc1Cl` (configuration not stated), the TGI was 31.9 µM in the assay with SF-268 CNS; 30.9 µM with RXF 393 renal; 39 µM with NCI-H226 lung; 28.1 µM with UACC-62 melanoma; 31.1 µM in the assay on HCT-15 colon; 29.7 µM in the assay with U251 CNS. Besides, the TGI with MOLT-4 leukemia and with RPMI-8226 leukemia was > 100 µM in each case.

For `CC(=O)[C@H]1CCC2[C@@H]3CC=C4C[C@@H]([O-])CC[C@]4(C)C3CC[C@@]21C.CC(=O)[C@H]1CCC2[C@@H]3CC=C4C[C@@H]([O-])CC[C@]4(C)C3CC[C@@]21C.CC(=O)[CH-]C(=O)c1ccccc1.CC(=O)[CH-]C(=O)c1ccccc1.Cl.[Ti+4]` (some centres not stated), the GI50 with SF-268 CNS is 21.3 µM; in the assay on RXF 393 renal it was 27.1 µM; in the assay with NCI-H460 lung, 13.9 µM; in the assay with NCI-H226 lung, 16.1 µM; with UACC-62 melanoma, 15.8 µM; with HCT-15 colon it was 17.6 µM. Further, the GI50 in the assay with MOLT-4 leukemia was 38.1 µM; with OVCAR-5 ovarian it was > 100 µM; in the assay on RPMI-8226 leukemia, 15 µM. The TGI in the assay with SF-268 CNS is 92.8 µM; in the assay on RXF 393 renal it was > 100 µM; in the assay with NCI-H460 lung it was 52.6 µM; in the assay with NCI-H226 lung, 44.9 µM; in the assay on UACC-62 melanoma, 56.9 µM; in the assay on HCT-15 colon, > 100 µM. Besides, the TGI in the assay on MOLT-4 leukemia, in the assay with OVCAR-5 ovarian and with RPMI-8226 leukemia was > 100 µM each time.

Turning to `O=C1O/C(=C/c2ccccc2)C(c2ccccc2)=C1O`, the TGI in the assay on RXF 393 renal was 70.3 µM; in the assay with NCI-H226 lung it was > 100 µM; with UACC-62 melanoma, 33.8 µM; in the assay on HCT-15 colon, > 100 µM; in the assay on U251 CNS, 82.7 µM; in the assay with MOLT-4 leukemia it was > 100 µM. Also, the TGI was > 100 µM in the assay on OVCAR-5 ovarian and 83.3 µM in the assay with RPMI-8226 leukemia.

On to `CCNC(=O)OCc1c(COC(=O)NCC)c(-c2ccc(Cl)c(Cl)c2)n2c1CCC2`, for which the TGI came to 32.8 µM in the assay with SF-268 CNS; 25.7 µM in the assay with NCI-H460 lung; 7.85 µM in the assay with NCI-H226 lung; 23.1 µM in the assay with UACC-62 melanoma; 36.9 µM in the assay with HCT-15 colon; 28.6 µM in the assay on U251 CNS. Further, the TGI stood at 56.3 µM with MOLT-4 leukemia, 59.1 µM in the assay with OVCAR-5 ovarian and 27.9 µM in the assay with RPMI-8226 leukemia.

`O=C(c1ccc(Cl)cc1)c1ccc(OCCCOc2ccc(C(=O)c3ccc(Cl)cc3)cc2Cl)c(Cl)c1`: the TGI in the assay with RXF 393 renal, in the assay with NCI-H460 lung, with NCI-H226 lung, in the assay with UACC-62 melanoma, in the assay on HCT-15 colon and with U251 CNS was > 100 µM in each case. For the same compound, the TGI with MOLT-4 leukemia, with OVCAR-5 ovarian and in the assay on RPMI-8226 leukemia was > 100 µM in each case.

Take `Cc1cc(C)c(-c2c(N)cc(Br)cc2Br)c(N)c1`: the GI50 in the assay on SF-268 CNS was 7.86 µM; with RXF 393 renal it was 3.16 µM; with NCI-H460 lung, 4.5 µM; in the assay with NCI-H226 lung, 11.8 µM; with UACC-62 melanoma, 4.3 µM; in the assay with HCT-15 colon it was 4.7 µM. Moreover, the figures for the GI50 in the assay on U251 CNS, with OVCAR-5 ovarian and with RPMI-8226 leukemia were 4.73 µM, 11.6 µM and 5.19 µM, respectively. Moreover, the TGI with SF-268 CNS came to 21.5 µM; with RXF 393 renal, 8.78 µM; with NCI-H460 lung, 16.7 µM; in the assay with NCI-H226 lung, 26.5 µM; in the assay with UACC-62 melanoma, 17.2 µM; with HCT-15 colon it was 17.3 µM. The total growth inhibition concentration (TGI) in the assay on U251 CNS was 17 µM; with OVCAR-5 ovarian, 25.6 µM; in the assay with RPMI-8226 leukemia, 19.6 µM.

As to `C=CCC(N[C@H](CO)c1ccccc1)c1cn(Cc2ccccc2Cl)c(=O)n(Cc2ccccc2Cl)c1=O` (some centres not stated), the GI50 with SF-268 CNS is 18.6 µM; in the assay with RXF 393 renal, 8.48 µM; in the assay with NCI-H460 lung it was 18.3 µM; in the assay with NCI-H226 lung it was 13.7 µM; in the assay on UACC-62 melanoma it was 7.64 µM; in the assay with HCT-15 colon, 9.27 µM. Also, the GI50 is 11.2 µM in the assay on U251 CNS, 25.6 µM with OVCAR-5 ovarian and 3.73 µM in the assay with RPMI-8226 leukemia. Further, the TGI in the assay with SF-268 CNS was > 100 µM; in the assay with RXF 393 renal it was 23.6 µM; in the assay with NCI-H460 lung, > 100 µM; with NCI-H226 lung, 49.8 µM; with UACC-62 melanoma, 27.1 µM; in the assay on HCT-15 colon it was 35.2 µM. In addition, the results for the TGI in the assay on U251 CNS, in the assay on OVCAR-5 ovarian and with RPMI-8226 leukemia were 34 µM, > 100 µM and 12.5 µM, respectively.

For the compound `Cc1cccc(C)c1N1C(=O)C(=O)C(c2nc3ccccc3s2)/C(=N\N)C1=O` (configuration not stated), the TGI in the assay on SF-268 CNS, with NCI-H460 lung, with NCI-H226 lung, with UACC-62 melanoma, in the assay with HCT-15 colon and in the assay on U251 CNS was > 100 µM throughout. The TGI in the assay with MOLT-4 leukemia, with OVCAR-5 ovarian and with RPMI-8226 leukemia was > 100 µM in each case.

For the compound `O=C(/C=C\c1cccc2ccccc12)c1ccc(Cl)cc1Cl`, the concentration for total growth inhibition (TGI) in the assay with SF-268 CNS was 51.9 µM; in the assay with NCI-H460 lung, 51.6 µM; with NCI-H226 lung it was > 100 µM; in the assay with UACC-62 melanoma, 34 µM; with HCT-15 colon it was 26.6 µM; with U251 CNS, 30.7 µM. Further, the TGI is 63.9 µM in the assay on MOLT-4 leukemia, 72.3 µM in the assay on OVCAR-5 ovarian and 46.6 µM in the assay on RPMI-8226 leukemia.

As for `O=C(Nc1ccc(Cl)c(Cl)c1)C(=O)C(C(=O)c1ccccc1-c1ccccc1)C1OC(=O)c2ccccc21` (configuration not stated), the concentration for total growth inhibition (TGI) with SF-268 CNS came to 72.2 µM; in the assay with RXF 393 renal, 21.5 µM; in the assay on NCI-H460 lung, 62.6 µM; in the assay on NCI-H226 lung, 15.1 µM; in the assay with UACC-62 melanoma it was 41.2 µM; with U251 CNS it was 23 µM. Further, the total growth inhibition concentration (TGI) with MOLT-4 leukemia was > 100 µM; in the assay on OVCAR-5 ovarian it was 33.9 µM; with RPMI-8226 leukemia it was 63.5 µM.
